“And” between values parts separate entries of the source, which are not always exact repeats. Identical values can stand only once.
Key:
[1] = tested on: male germ cells; assay type: in vivo, mouse
Protocol: (§1) For the HN analog experiments, male mice were divided into seven groups (n=4-5 per group) and received one of the following treatments and sacrificed after 24 hours: 1) vehicle (control); 2) a single intra-peritoneal (IP) injection of HN peptide [HN, 40 mg/Kg body weight (BW)]; 3) a single IP injection of CP (CP, 200 mg/Kg BW); 4) IP injection of CP and HN (CP+HN); 5) a single IP injection of each HN analog (HNG 5 mg/Kg BW, HNG-F6A 5 mg/Kg BW, HN-S7A 40 mg/Kg BW, HN-C8P 40 mg/Kg BW, or HN-L12A 40 mg/Kg BW); 6) IP injection of CP and each HN analog (CP+HNG, HNG-F6A, HN-S7A, HN-C8P, or HN-L12A); and 7) IP injection of CP+HN+HN analog (HN-S7A, HN-C8P, or HN-L12A; to assess whether the analogs has enhancing or inhibitory effect on HN).
(§2) To facilitate testicular fixation by using a whole-body perfusion technique, all animals were injected with heparin (130 IU/100 g BW, IP) 15 min before a lethal injection of sodium pentobarbital (200 mg/kg BW, IP) (Lue Y H, et al., 1999). One testis was removed and weighed after perfusion with saline. Portions of testicular parenchyma were snap frozen in liquid nitrogen, and stored at −80 C for Western blotting. The other testis was fixed by vascular perfusion with Bouin's solution, and processed with routine paraffin embedding for in situ detection of apoptosis.
Detection of apoptotic cells was performed in Bouin's′-fixed, paraffin-embedded testicular sections by the terminal deoxynucleotidyl transferase (TdT)-mediated deoxy-UTP nick end labeling (TUNEL) technique (Sinha Hikim A P, et al., 1997) using an ApopTag-peroxidase kit (Chemicon International, Inc., Temecula, Calif.). Enumeration of the Sertoli cell nuclei with distinct nucleoli and apoptotic germ cell population was quantified at stages I-IV (early stages), stages VII-VIII (middle stages) and stages XI-XII (late stages) of the seminiferous epithelial cycle using an Olympus BH-2 microscope (New Hyde Park, N.Y.). Stages were identified according to the criteria proposed by Russell et al for paraffin sections (Russell L, 1977). The rate of germ cell apoptosis (apoptotic index, AI) was expressed as the number of apoptotic germ cells per Sertoli cells (Sinha Hikim A P, et al., 1997).

[2] = tested on: male germ cells; assay type: in vivo, mouse; settings: for germ cell apoptosis in testicular cross sections (TUNEL) compared to control: 24 hours after IP injection
Protocol: Young adult mice (12-13 weeks) were randomly divided into 4 groups with 4 or 5 mice per group and received an IP injection: control (Con) (saline), HN (40 mg/Kg BW), CP (200 mg/Kg BW), and the combination of CP+HN. These experiments were repeated four times. In the CP+HN group, mice received an injection of HN followed by an injection of CP about 15 minutes later. Twenty-four hours after injections animals were sacrificed using 5% pentobarbital (200 mg/kg BW) IP injection. Blood was collected and one testis was removed, weighed and frozen in liquid nitrogen. The mouse was next perfused with saline and then subsequently perfuse-fixed with Bouin's solution as previously described and apoptosis was assessed by TUNEL assay (Lue, et al., 2009).
For detection of apoptosis in testicular sections, the paraffin embedded testis tissue was cut into 5 micron sections and stained with the TdT-mediated dUTP nick-end labeling assay (TUNEL Apoptosis Detection Kit, Millipore, Billerica, Mass.) to detect apoptosis of germ cells in the testis (Lue, et al., 2009). Testicular sections assayed by TUNEL were examined under a light microscope and the apoptotic germ cells were blindly and manually counted. The seminiferous tubules in the testis section under the microscope were grouped as stages IX-IV (early-late stages of spermatogenesis) and V-VIII (middle stages of spermatogenesis). Germ cell apoptosis was quantified as the number of seminiferous tubules containing apoptotic spermatogonia, spermatoctyes, round spermatids and spermatozoa per 100 seminiferous tubules (Drumond, et al., 2011).
Statistical analyses of the majority of the data was performed using the Sigma Plot 12 program (Jandel, San Rafael, Calif.). The data were analyzed by using t-tests and one-way ANOVA followed by Student-Newman-Keuls Method. P-values of less than 0.05 (P<0.05) were considered significant. In in vivo experiments when the testicular sections were assessed for apoptosis, a mixed model used the percentage of tubules with apoptosis as the dependent variable. Two different stages (Early or Late Vs Middle) and four treatment groups (Control, HN CP, CP+HN) as well as the interaction term were included in the model as independent variables. Persons who did the experiment were considered as a random effect to accommodate a potential heterogeneous variance in the model. Least Square Means and their differences were computed and tested using the Tukey's adjustment for multiple pair-wise comparisons. A residual analysis was done to check for the model assumptions. All the data analysis was carried out using SAS 9.3 (Cary, N.C. USA).

[3] = tested on: Leydig cells; test: Leydig cell depletion and testosterone levels in rats; assay type: in vivo, rat; settings: for intratesticular testosterone levels / serum testosterone levels: rats, EDS 80 mg/kg, CP 70 mg/kg BW, HN 40 mg/kg BW, with or without EDS pre-treatment
[4] = tested on: male germ cells
[5] = tested on: STAT3; test: STAT3 phosphorylation in testis by western blot; assay type: in vivo, mouse; settings: testis homogenates; for STAT3 phosphorylation (phosphorylated STAT3/STAT3) compared with control: treatment alone
Protocol: as §1, §2
Western blotting was performed as described previously (Jia Y, et al., 2009). In brief, proteins were denatured and separated by sodium dodecyl sulfate-polyacrylamide gel electrophoresis (SDS-PAGE) system (Invitrogen, Carlsbad, Calif.). After transferring, the Immuno-blot PVDF Membrane (Bio-Rad, Hercules, Calif.) was blocked for 1 h and then probed using anti-STAT3 or anti-pSer727 STAT3 (Cell signaling Technology, Inc., Beverly, Mass.) overnight at 4 C with constant shaking. After washing, membrane was then incubated with an anti-mouse (for STAT3 antibody, Santa Cruz Biotechnology, Santa Cruz, Calif.) or anti-rabbit (for pSer727 STAT3 antibody, Amersham Biosciences, Piscataway, N.J.) IgG-HRP secondary antibody. All antibodies were diluted in blocking buffer. For immunodetection, membrane was incubated with enhanced chemiluminescence solutions per the manufacturer's specifications (Amersham Biosciences, Piscataway, N.J.), and exposed to Hyperfilm ECL (Denville Scientific Inc., Metuchen, N.J.).

[6] = EDS 80 mg/kg IP 3 days before, CP 70 mg/kg BW
[7] = rats not pre-treated with EDS, CP 70 mg/kg BW IP, 12 hours

O=P1(N(CCCl)CCCl)NCCCO1 (stereo not shown) [CP, cyclophosphamide monohydrate]
Apoptotic Index (AI), apoptotic germ cells per Sertoli cell, middle stages ([1]; stages VII-VIII, 24 hours after single IP, CP 200 mg/Kg, HN, HN-S7A 40 mg/Kg, HNG, HNG-F6A 5 mg/Kg, monohydrate): 0.25±0.03 and 0.33±0.03
germ cell apoptosis in testicular cross sections (TUNEL) compared to control ([2]; HN 40 mg/Kg, CP 200 mg/Kg): significantly increased germ cell apoptosis
germ cell apoptosis, percentage of tubules with apoptotic cells, early-late stages ([2]; early-late stages of spermatogenesis, 24 hours, CP 200 mg/Kg, HN 40 mg/Kg): significantly increased germ cell apoptosis
germ cell apoptosis, percentage of tubules with apoptotic cells, middle stages ([2]; middle stages (V-VIII), 24 hours, CP 200 mg/Kg, HN 40 mg/Kg): significant increase in apoptosis
intratesticular testosterone levels [3]: had no significant effects
serum testosterone levels [3]: had no significant effects
CP induced germ cell apoptosis with versus without EDS pre-treatment, early and late stages ([4]; CP 70 mg/kg BW): significantly lower in EDS pre-treated rats
germ cell apoptosis at early (I-VI) and late (IX-XIV) stages, EDS pre-treated rats, compared to control [4, 6]: did not significantly increased germ cell apoptosis
germ cell apoptosis in middle (VII-VIII) stages, EDS pre-treated rats [4, 6]: did not additively increased germ cell apoptosis caused by EDS treatment
germ cell apoptosis at early (I-VI) and late (IX-XIV) stages compared to control [4, 7]: significantly increased germ cell apoptosis
germ cell apoptosis in the middle (VII-VIII) stages [4, 7]: did not increase apoptosis in the middle (VII-VIII) stages
STAT3 phosphorylation (phosphorylated STAT3/STAT3) compared with control [5]: suppressed Ser727-phosphorylated STAT3 in testes

MAPRGFSCLLLLTSEIDLPVKRRA [HN, 24-amino acid mitochondrial derived peptide]
spontaneous germ cell apoptosis, peptide alone ([1]; single IP, 24 hours, no CP): did not change the spontaneous germ cell apoptosis
inhibition of (protection against) CP-induced germ cell apoptosis, early+late stages ([1]; stages I-IV and XI-XII, HN, HN-C8P 40 mg/kg BW, HNG, HNG-F6A 5 mg/kg BW): ~57% and ~60%
effect on CP-induced germ cell apoptosis, middle stages ([1]; stages VII-VIII, 40 mg/kg BW): not in middle stages
germ cell apoptosis in testicular cross sections (TUNEL) compared to control ([2]; HN 40 mg/Kg, CP 200 mg/Kg): had no significant effect on germ cell apoptosis
CP-induced germ cell apoptosis ([2]; HN 40 mg/Kg IP about 15 minutes before CP 200 mg/Kg IP, 24 hours): attenuated the CP-induced germ cell apoptosis
EDS-induced Leydig cell loss ([3]; HN administered 3 days after EDS pre-treatment): did not reverse the EDS-induced Leydig cell loss
intratesticular testosterone levels [3]: had no significant effects
serum testosterone levels [3]: had no significant effects
germ cell apoptosis at early and late stages in EDS pre-treated rats, addition of HN ([4]; HN 40 mg/kg BW): did not significantly reduced germ cell apoptosis
CP effects at early and late stages in EDS pre-treated animals, addition of HN ([4]; HN 40 mg/kg BW + CP + EDS): did not change the CP effects in EDS pre-treated animals
EDS-induced apoptosis of germ cells, middle stages ([4]; HN 40 mg/kg BW IP 3 days after EDS): significantly reduced the EDS-induced apoptosis of germ cells
increase in apoptosis in CP+EDS group, middle stages ([4]; concomitant HN 40 mg/kg BW): reduced by concomitant HN treatment
apoptosis in CP treated testis, middle (VII-VIII) stages ([4]; rats not pre-treated with EDS, HN 40 mg/kg BW + CP): had no effect on CP treated testis
CP-induced apoptosis at early and late stages ([4]; rats not pre-treated with EDS, HN 40 mg/kg BW IP + CP 70 mg/kg BW): significantly reduced CP-induced apoptosis
STAT3 phosphorylation (phosphorylated STAT3/STAT3) compared with control [5]: did not change STAT3 phosphorylation
CP suppressed STAT3 (Ser727) phosphorylation ([5]; with CP 200 mg/Kg): restored CP-induced Ser 727-phosphorylation of STAT3

Source: patent US20150374784A1, “COMPOSITIONS AND METHODS FOR REDUCING GERM CELL DEATH” (Los Angeles Biomedical Research Institute at Harbor-UCLA …, priority 2014, published 2015)
